Test results taken from patent US8481456B2 (priority 2009, dated 2013).
Read-outs that look alike come from different tables or passages of the source.

Experiments:
Phytophthora infestans = assay: whole plant or invertebrate; assay type: in vivo; conditions: 3 days after the inoculation; for pest or weed control at 200 ppm: 200 ppm a.i.; for pest or weed control at 50 ppm: 50 ppm a.i.
Septoria tritici = Septoria tritici test (wheat)/preventive; assay type: in vivo; conditions: 21 days after the inoculation
[1] = test system: apple scab (Venturia inaequalis); assay: Venturia test (apples)/preventive; conditions: for Efficacy in %, found: Table L2, 10 days after the inoculation
[2] = test system: larvae of the mustard beetle (Phaedon cochleariae); assay: Phaedon cochleariae larvae test; assay type: in vivo; conditions: for mortality at 200 ppm: 200 ppm a.i.
Description: (§1) Cabbage leaves (Brassica oleracea) are treated by being sprayed into the preparation of the active compound of the desired concentration and are infested with larvae of the mustard beetle (Phaedon cochleariae) as long as the leaves are still moist. After the specified period of time, the mortality in % is determined. 100% means that all the beetle larvae have been killed; 0% means that none of the beetle larvae have been killed.

Alternaria solani = assay: Alternaria test (tomatoes)/preventive; assay type: in vivo; conditions: for pest or weed control at 100 ppm / pest or weed control at 200 ppm: read-out: Efficacy in %, found; for pest or weed control at 12.5 ppm: 12.5 ppm a.i.; for pest or weed control at 25 ppm: 25 ppm a.i.
[3] = test system: Fusarium nivale (var. majus); assay: Fusarium nivale (var. majus)-test (wheat)/preventive; conditions: 5 days after the inoculation
Pyrenophora teres = Pyrenophora teres test (barley)/preventive; assay type: in vivo; conditions: 8 days after the inoculation
[4] = test system: larvae of the diamondback moth (Plutella xylostella); assay: Plutella xylostella test; assay type: in vivo; conditions: for mortality at 200 ppm: 200 ppm a.i.
Description: as §1, with “diamondback moth (Plutella xylostella)” for “mustard beetle (Phaedon cochleariae)”, “caterpillars” for “beetle larvae”

[5] = test system: Green peach aphid (Myzus persicae); assay: Myzus persicae test; assay type: in vivo; conditions: for mortality at 0.8 ppm: 0.8 ppm a.i.; for mortality at 200 ppm: 200 ppm a.i.
Description: Cabbage leaves (Brassica oleracea) which are heavily infested by the Green peach aphid (Myzus persicae) are treated by being sprayed into the preparation of the active compound of the desired concentration. After the specified period of time, the mortality in % is determined. 100% means that all the aphids have been killed; 0% means that none of the aphids have been killed.

Botrytis cinerea = assay: Botrytis test (beans)/preventive; conditions: 2 days after the inoculation
[6] = test system: larvae of the fall army worm (Spodoptera frugiperda); assay: Spodoptera frugiperda test/seed application; assay type: in vivo; conditions: corn seed treatment
Description: 14 days after sowing the leaves were cut off and infested with larvae of the fall army worm (Spodoptera frugiperda). After the specitied period of time, the mortality in % is determined. 100% means that all the caterpillars have been killed; 0% means that none of the caterpillars have been killed.

Fusarium graminearum = assay type: in vivo; conditions: 1000 ppm a.i.; 5 days after the inoculation
[7] = Phytophthora infestans, 72 h, read-out: Efficacy in %, found, Table I2
[8] = Venturia inaequalis, 240 h, read-out: Efficacy in %, found
[9] = 72 h, read-out: Mortality in % after 3 d, found
[10] = Phytophthora infestans, 72 h, read-out: Efficacy in %, found, Table I1, 100 ppm a.i.
[11] = Phytophthora infestans, 72 h, read-out: Efficacy in %, found, Table I1
[12] = 72 h, 4 ppm a.i., after 3 d, read-out: Mortality in % after 3 d, found
[13] = 48 h, after 2 d, read-out: Mortality in % after 2 d, found
[14] = 24 h, after 1 d, read-out: Mortality in % after 1 d, found
[15] = 72 h, after 3 d, read-out: Mortality in % after 3 d, found
[16] = Alternaria solani, 72 h, read-out: Efficacy in %, found, Table E1, 3 days after the inoculation
[17] = Alternaria solani, 72 h, read-out: Efficacy in %, found, Table E2, 3 days after the inoculation

Cc1c(F)c(F)c(COC(=O)[C@@H]2[C@H](/C=C(\Cl)C(F)(F)F)C2(C)C)c(F)c1F (racemic) [(3A.43), tefluthrin]
pest or weed control at 200 ppm (Phytophthora infestans; [7]): 0% | Efficacy in %, found (Septoria tritici; 500 ppm a.i.): 0% | pest or weed control at 100 ppm [1, 8]: 23%

CNC(=O)Oc1cc(C)c(SC)c(C)c1 [(1A.15), methiocarb]
mortality at 20 ppm [2, 9]: 35% | pest or weed control at 100 ppm (Alternaria solani; Alternaria solani, 72 h): 45% | pest or weed control at 200 ppm (Alternaria solani; Alternaria solani, 72 h): 47% | pest or weed control at 100 ppm (Phytophthora infestans; Phytophthora infestans, 72 h, read-out: Efficacy in %, found, Table I2, 100 ppm a.i.): 16% | pest or weed control at 100 ppm [1, 8]: 4%

CS/C(C)=N\OC(=O)N(C)SN(C)C(=O)O/N=C(\C)SC [(1A.21), thiodicarb]
pest or weed control at 200 ppm (Alternaria solani; Alternaria solani, 72 h): 52% | Efficacy in %, found ([3]; 1000 ppm a.i.): 0%

N#Cc1nn(-c2c(Cl)cc(C(F)(F)F)cc2Cl)c(N)c1[S+]([O-])C(F)(F)F (stereo not shown) [(2B.2), fipronil]
pest or weed control at 100 ppm (Alternaria solani; Alternaria solani, 72 h): 28% | pest or weed control at 200 ppm (Alternaria solani; Alternaria solani, 72 h): 44% | pest or weed control at 100 ppm (Phytophthora infestans; [10]): 30% | pest or weed control at 200 ppm (Phytophthora infestans; [11]): 47% | Efficacy in %, found (Pyrenophora teres; Table J2, 500 ppm a.i.): 0% | pest or weed control at 200 ppm [1, 8]: 8%

CC1(C)C(C=C(Cl)Cl)C1C(=O)OC(C#N)c1ccc(F)c(Oc2ccccc2)c1 (stereo not shown) [(3A.10), cyfluthrin]
Efficacy in %, found (Pyrenophora teres; Table J2, 500 ppm a.i.): 0%

CC1(C)C(C=C(Cl)Cl)C1C(=O)OC(C#N)c1ccc(F)c(Oc2ccccc2)c1 (stereo not drawn) [(3A.11), β-cyfluthrin]
Mortality in % after 2 d, found ([4]; 4 ppm a.i., after 2 d): 40%

CC1(C)[C@H](C=C(Cl)Cl)[C@H]1C(=O)OCc1c(F)c(F)cc(F)c1F [(3A.46), transfluthrin]
mortality at 4 ppm [5, 12]: 0%

C/C(=N\C#N)N(C)Cc1ccc(Cl)nc1 [(4A.1), acetamiprid]
mortality at 4 ppm ([5]; 24 h, read-out: Mortality in % after 1 d, found): 10% | mortality at 4 ppm [2, 9]: 0% | pest or weed control at 200 ppm (Phytophthora infestans; [11]): 27% | Efficacy in %, found (Botrytis cinerea; 100 ppm a.i.): 0%

CN/C(=N\[N+](=O)[O-])NCc1cnc(Cl)s1 [(4A.2), clothianidin]
mortality at 4 ppm [2, 12]: 0% | pest or weed control at 100 ppm (Alternaria solani; Alternaria solani, 72 h): 49% | pest or weed control at 200 ppm (Alternaria solani; Alternaria solani, 72 h): 45% | pest or weed control at 100 ppm (Phytophthora infestans; [10]): 30% | Efficacy in %, found (Pyrenophora teres; Table J2, 500 ppm a.i.): 0% | pest or weed control at 100 ppm [1, 8]: 0% | pest or weed control at 200 ppm [1, 8]: 0%

O=[N+]([O-])NC1=NCCN1Cc1ccc(Cl)nc1 [(4A.4), imidacloprid]
mortality at 20 ppm ([2]; 24 h, 20 ppm a.i., after 1 d, read-out: Mortality in % after 1 d, found): 0% | Efficacy in % 1 d after infestation, found ([6]; 0.25 mg a.i./seed): 0% | pest or weed control at 100 ppm (Alternaria solani; Alternaria solani, 72 h): 13% | pest or weed control at 200 ppm (Alternaria solani; Alternaria solani, 72 h): 30% | Efficacy in %, found (Fusarium graminearum): 0%

N#C/N=C1\SCCN1Cc1ccc(Cl)nc1 [(4A.6), thiacloprid]
mortality at 4 ppm ([5]; 4 ppm a.i., after 4 h, read-out: Mortality in % after 4 h, found): 20% | pest or weed control at 100 ppm (Alternaria solani; Alternaria solani, 72 h): 13% | pest or weed control at 100 ppm (Phytophthora infestans; [10]): 16% | pest or weed control at 200 ppm [1, 8]: 4% | Efficacy in %, found ([3]; 1000 ppm a.i.): 0%

CN1COCN(Cc2cnc(Cl)s2)/C1=N\[N+](=O)[O-] [(4A.7), thiamethoxam]
pest or weed control at 200 ppm (Alternaria solani; Alternaria solani, 72 h, Table E1, 200 ppm a.i., 3 days after the inoculation): 64% | pest or weed control at 100 ppm (Phytophthora infestans; [10]): 30% | Efficacy in %, found (Pyrenophora teres; Table J1, 1000 ppm a.i.): 0% | Efficacy in %, found (Botrytis cinerea; 100 ppm a.i.): 0% | pest or weed control at 100 ppm [1, 8]: 18% | pest or weed control at 200 ppm [1, 8]: 25%

CNC(=O)c1cc(Cl)cc(C)c1NC(=O)c1cc(Br)nn1-c1ncccc1Cl [(26.1), chloranthraniliprole (rynaxypyr)]
mortality at 0.8 ppm [5, 13]: 40% | mortality at 4 ppm ([4]; Plutella xylostella, 24 h, 4 ppm a.i., after 1 d, read-out: Mortality in % after 1 d, found): 25% | pest or weed control at 100 ppm (Alternaria solani; Alternaria solani, 72 h): 37% | pest or weed control at 200 ppm (Alternaria solani; Alternaria solani, 72 h): 37% | pest or weed control at 100 ppm (Phytophthora infestans; [10]): 32% | Efficacy in %, found (Pyrenophora teres; Table J2, 500 ppm a.i.): 14% | Efficacy in %, found (Botrytis cinerea; 100 ppm a.i.): 0% | Efficacy in %, found (Botrytis cinerea; 200 ppm a.i.): 0% | pest or weed control at 100 ppm [1, 8]: 0%

CNC(=O)c1cc(C#N)cc(C)c1NC(=O)c1cc(Br)nn1-c1ncccc1Cl [(26.2), cyantraniliprole (cyazypyr)]
mortality at 4 ppm ([5]; 48 h, 4 ppm a.i., after 2 d, read-out: Mortality in % after 2 d, found): 50% | mortality at 0.8 ppm ([2]; 72 h, 0.8 ppm a.i., after 3 d, read-out: Mortality in % after 3 d, found): 25% | pest or weed control at 100 ppm (Alternaria solani; Alternaria solani, 72 h): 28% | pest or weed control at 100 ppm (Phytophthora infestans; [10]): 30% | Efficacy in %, found (Botrytis cinerea; 100 ppm a.i.): 0% | Efficacy in %, found (Botrytis cinerea; 200 ppm a.i.): 0% | pest or weed control at 100 ppm [1, 8]: 0% | pest or weed control at 200 ppm [1, 8]: 18%

O=C1C=C(N(Cc2ccc(Cl)nc2)CC(F)F)CO1 [(27.16), 4-{[(6-chloropyridin-3-yl)methyl](2,2-difluoroethyl)amino}furan-2(5H)-one]
pest or weed control at 200 ppm (Phytophthora infestans; [7]): 30% | Efficacy in %, found (Septoria tritici; 1000 ppm a.i.): 0% | pest or weed control at 200 ppm [1, 8]: 8%

CC(c1ccc(C(F)(F)F)nc1)S(C)(=O)=NC#N (stereo not shown) [(27.27), sulfoxaflor]
mortality at 0.8 ppm [5, 14]: 20% | pest or weed control at 100 ppm (Alternaria solani; Alternaria solani, 72 h): 0% | pest or weed control at 200 ppm (Alternaria solani; Alternaria solani, 72 h): 51% | Efficacy in %, found (Botrytis cinerea; 200 ppm a.i.): 0% | pest or weed control at 100 ppm [1, 8]: 0%

Cn1c(=O)c2sc3c(=O)n(C)c(=O)c3sc2c1=O [(I-1), 2,6-dimethyl-1H,5H-[1,4]dithiino[2,3-c:5,6-c′]dipyrrole-1,3,5,7(2H,6H)-tetrone]
mortality at 200 ppm ([5]; after 4 h, read-out: Mortality in % after 4 h, found): 0% | mortality at 200 ppm [5, 14]: 0% | mortality at 200 ppm [5, 13]: 0% | mortality at 200 ppm [5, 15]: 0% | mortality at 200 ppm [2, 14]: 0% | mortality at 200 ppm [2, 15]: 0% | mortality at 200 ppm ([4]; Plutella xylostella, 24 h, after 1 d, read-out: Mortality in % after 1 d, found): 0% | mortality at 200 ppm ([4]; Plutella xylostella, 48 h, after 2 d, read-out: Mortality in % after 2 d, found): 0% | Efficacy in % 1 d after infestation, found ([6]; 1 mg a.i./seed): 0% | Efficacy in % 3 d after infestation, found ([6]; 1 mg a.i./seed): 23.8% | pest or weed control at 12.5 ppm (Alternaria solani; [16]): 13% | pest or weed control at 25 ppm (Alternaria solani; [16]): 54% | pest or weed control at 12.5 ppm (Alternaria solani; [17]): 30% | pest or weed control at 25 ppm (Alternaria solani; [17]): 50% | pest or weed control at 50 ppm (Alternaria solani; Alternaria solani, 72 h, read-out: Efficacy in %, found, Table E2, 50 ppm a.i., 3 days after the inoculation): 58% | Efficacy in %, found (Fusarium graminearum): 50% | pest or weed control at 12.5 ppm (Phytophthora infestans; Phytophthora infestans, 72 h, read-out: Efficacy in %, found, Table I1, 12.5 ppm a.i.): 18% | pest or weed control at 50 ppm (Phytophthora infestans; [11]): 43% | pest or weed control at 50 ppm (Phytophthora infestans; [7]): 28% | Efficacy in %, found (Pyrenophora teres; Table J1, 1000 ppm a.i.): 43% | Efficacy in %, found (Pyrenophora teres; Table J2, 500 ppm a.i.): 43% | Efficacy in %, found (Septoria tritici; 500 ppm a.i.): 0% | Efficacy in %, found (Botrytis cinerea; 25 ppm a.i.): 13% | Efficacy in %, found (Botrytis cinerea; 50 ppm a.i.): 48% | pest or weed control at 12.5 ppm [1, 8]: 33% | pest or weed control at 50 ppm [1, 8]: 29% | Efficacy in %, found ([3]; 500 ppm a.i.): 29%

abamectin [(6.1)]
Mortality in % after 1 d, found ([4]; 4 ppm a.i., after 1 d): 75% | Efficacy in % 3 d after infestation, found ([6]; 0.25 mg a.i./seed): 4.8% | Efficacy in %, found (Alternaria solani; Table E2, 100 ppm a.i., 3 days after the inoculation): 32% | Efficacy in %, found ([1]; 100 ppm a.i.): 53% | Efficacy in %, found ([1]; 200 ppm a.i.): 51%

spinosad [(5.2)]
Mortality in % after 1 d, found ([4]; 4 ppm a.i., after 1 d): 70% | Efficacy in %, found (Phytophthora infestans; Table I2, 100 ppm a.i.): 10% | Efficacy in %, found (Pyrenophora teres; Table J1, 1000 ppm a.i.): 0%
